Experimental data as given in patent US20080214807A1, “Substituted Spiro Compounds and their Use for Producing Drugs” (Gruenenthal GmbH, priority 2005, published 2008).

Assays:
VR1 (human) = target: T1, VR1 (human) (Homo sapiens, UniProt Q8NER1); assay: Functional testing on vanilloid receptor VR1, FLIPR Ca2+ inflow assay (CHO K1 cells stably transfected with the VR1 gene); format: cell-based; conditions: test compound 10 μM; for inhibition at 10 µM / activation at 10 µM: CHO-K1; for inhibition at 10 µM: read-out: VR1 (human) (% inhibition compared to 10 μM CP); for activation at 10 µM: read-out: VR1 (human) (% stimulation compared to 10 μM CP)
T1 construct: expressed in transfected cells; host or cells: CHO K1 cells (ECACC)
Description: II. Functional Testing Carried out on the Vanilloid Receptor (VR1)
The agonistic or antagonistic effect of the substances to be tested can also be determined on the vanilloid receptor (VR1) using the following assay. According to this assay, the Ca^2+ inflow is quantified through the channel using a Ca^2+-sensitive dye (type Fluo-4, Molecular Probes Europe BV, Leiden, Netherlands) in a fluorescent imaging plate reader (FLIPR, Molecular Devices, Sunnyvale, USA).
Chinese hamster ovary cells (CHO K1 cells, European Collection of Cell Cultures (ECACC) United Kingdom) were stably transfected with the VR1 gene. For functional testing, these cells were plated out on poly-D-lysine-coated black 96 well plates having a clear base (BD Biosciences, Heidelberg, Germany) at a density of 25,000 cells/well. The cells were incubated overnight at 37° C. and 5% CO2 in a culture medium (Ham's F12 nutrient mixture, 10-% by volume of FCS (foetal calf serum), 18 μg/ml L-proline). The next day the cells were incubated with Fluo-4 (Fluo-4 2 μM, 0.01% by volume of Pluronic F127, Molecular Probes in HBSS (Hank's buffered saline solution), Gibco Invitrogen GmbH, Karlsruhe, Germany) for 30 minutes at 37° C. Subsequently, the plates were washed 3 times with HBSS buffer and after further incubation for 15 minutes at room temperature used for Ca^2+ measurement in a FLI PR assay. The Ca^2+-dependent fluorescence was measured before and after the addition of the substances to be tested (λex wavelength=488 nm, λem=540 nm). Quantification was carried out by measuring the highest fluorescence intensity (FC, Fluorescence Counts) over time.
The FLIPR protocol consists of 2 substance additions. First the compounds to be tested (10 μM) were pipetted onto the cells and the Ca^2+ inflow was compared with the control (capsaicin 10 μM) (% activation based on the Ca^2+ signal after the addition of 10 μM capsaicin). After 5 minutes' incubation, 100 nM of capsaicin were administered and the Ca^2+ inflow was also determined.
Desensitising agonists and antagonists led to suppression of the Ca^2+ inflow. The % inhibition was calculated compared to the maximum achievable inhibition with 10 μM of capsaicin.

[1] = target: T2, rat-species vanilloid receptor 1 (VR1/TRPV1) (Rattus norvegicus, UniProt O35433); assay: Functional testing on vanilloid receptor 1 (VR1/TRPV1), FLIPR Ca2+ inflow assay in rat dorsal root ganglia cells; format: cell-based; conditions: test compound 10 μM; for inhibition at 10 µM: read-out: VR1 (rat) (% inhibition compared to 10 μM CP); for activation at 10 µM: read-out: VR1 (rat) (% stimulation compared to 10 μM CP)
T2 construct: endogenous in cells; host or cells: primary cultured rat dorsal root ganglion cells
Description: I. Functional Testing Carried out on the Vanilloid Receptor 1 (VRI/TRPV1 Receptor)
The agonistic or antagonistic effect of the substances to be tested can be determined on the rat-species vanilloid receptor 1 (VR1/TRPV1) using the following assay. According to this assay, the Ca^2+ inflow is quantified through the receptor channel using a Ca^2+-sensitive dye (type Fluo-4, Molecular Probes Europe BV, Leiden, Netherlands) in a fluorescent imaging plate reader (FLIPR, Molecular Devices, Sunnyvale, USA).
Complete medium: 50 mL HAMS F12 nutrient mixture (Gibco Invitrogen GmbH, Karlsruhe, Germany) with
10% by volume of FCS (foetal calf serum, Gibco Invitrogen GmbH, Karlsruhe, Germany, […]);
2 mM L-glutamine (Sigma, Munich, Germany);
1% by weight of AA solution (antibiotic/antimyotic solution, PAA, Pasching, Austria) and 25 ng/ml NGF medium (2.5 S, Gibco Invitrogen GmbH, Karlsruhe, Germany)
Cell culture plate: Poly-D-lysine-coated, black 96 well plates having a clear base (96 well black/clear plate, BD Biosciences, Heidelberg, Germany) were additionally coated with laminin (Gibco Invitrogen GmbH, Karlsruhe, Germany), the laminin being diluted with PBS (Ca—Mg-free PBS, Gibco Invitrogen GmbH, Karlsruhe, Germany) to a concentration of 100 μg/mL. Aliquots having a laminin concentration of 100 μg/mL were removed and stored at −20° C. The aliquots were diluted with PBS in a ratio of 1:10 to 10 μg/mL laminin and in each case 50 μL of the solution were pipetted into a recess in the cell culture plate. The cell culture plates were incubated for at least two hours at 37° C., the excess solution was removed by suction-filtration and the recesses were each washed twice with PBS. The coated cell culture plates were stored with excess PBS which was not removed until just before the feeding of the cells.
Preparation of the Cells:
The vertebral column was removed from decapitated rats and placed immediately into cold HBSS buffer (Hank's buffered saline solution, Gibco Invitrogen GmbH, Karlsruhe, Germany), i.e. buffer located in an ice bath, mixed with 1% by volume (percent by volume) of an AA solution (antibiotic/antimyotic solution, PAA, Pasching, Austria). The vertebral column was cut longitudinally and removed together with fasciae from the vertebral canal. Subsequently, the dorsal root ganglia (DRG) were removed and again stored in cold HBSS buffer mixed with 1% by volume of an AA solution. The DRG, from which all blood remnants and spinal nerves had been removed, were transferred in each case to 500 μL of cold type 2 collagenase (PAA, Pasching, Austria) and incubated for 35 minutes at 37° C. After the addition of 2.5% by volume of trypsin (PAA, Pasching, Austria), incubation was continued for 10 minutes at 37° C. After complete incubation, the enzyme solution was carefully pipetted off and 500 μL of complete medium were added to each of the remaining DRG. The DRG were in each case suspended several times, drawn through cannulae No. 1, No. 12 and No. 16 using a syringe and transferred to a 50 mL Falcon tube which was filled up to 15 mL with complete medium. The contents of each Falcon tube was in each case filtered through a 70 μm Falcon filter element and centrifuged for 10 minutes at 1,200 rpm and room temperature. The resulting pellet was in each case taken up in 250 μL of complete medium and the number of cells determined.
The number of cells in the suspension was set to 3×10^5 per mL and 150 μL of this suspension were in each case introduced into a recess in the cell culture plates coated as described hereinbefore. In the incubator the plates were left for two to three days at 37° C., 5% by volume of CO2 and 95% relative humidity. […]

[2] = 5 min incubation, then 100 nM capsaicin, relative to maximum achievable inhibition with 10 μM capsaicin
[3] = Ca2+ inflow relative to signal of 10 μM capsaicin (CP)

T1 sequence (Q8NER1 whole entry): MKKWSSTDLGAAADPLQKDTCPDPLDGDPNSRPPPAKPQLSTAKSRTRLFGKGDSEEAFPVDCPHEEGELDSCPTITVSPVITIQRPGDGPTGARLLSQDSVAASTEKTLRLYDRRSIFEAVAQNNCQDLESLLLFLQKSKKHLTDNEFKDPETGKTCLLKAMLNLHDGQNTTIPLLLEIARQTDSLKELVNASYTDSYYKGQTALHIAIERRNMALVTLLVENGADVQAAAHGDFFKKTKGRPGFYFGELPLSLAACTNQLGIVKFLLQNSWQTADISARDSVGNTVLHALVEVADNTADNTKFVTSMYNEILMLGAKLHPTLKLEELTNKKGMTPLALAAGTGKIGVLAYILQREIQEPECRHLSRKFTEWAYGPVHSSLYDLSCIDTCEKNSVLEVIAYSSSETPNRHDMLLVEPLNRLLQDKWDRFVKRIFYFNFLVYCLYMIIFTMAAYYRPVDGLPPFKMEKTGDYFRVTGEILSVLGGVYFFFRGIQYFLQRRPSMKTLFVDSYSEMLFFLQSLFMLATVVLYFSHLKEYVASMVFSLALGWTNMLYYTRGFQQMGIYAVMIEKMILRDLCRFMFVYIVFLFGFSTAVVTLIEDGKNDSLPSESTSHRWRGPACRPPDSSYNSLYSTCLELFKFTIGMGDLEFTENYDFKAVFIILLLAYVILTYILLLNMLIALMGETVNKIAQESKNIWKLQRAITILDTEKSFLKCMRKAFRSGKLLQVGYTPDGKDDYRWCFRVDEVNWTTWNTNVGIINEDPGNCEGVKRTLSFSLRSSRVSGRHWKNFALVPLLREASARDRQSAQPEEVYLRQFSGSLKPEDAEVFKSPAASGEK
T2 sequence (O35433 whole entry): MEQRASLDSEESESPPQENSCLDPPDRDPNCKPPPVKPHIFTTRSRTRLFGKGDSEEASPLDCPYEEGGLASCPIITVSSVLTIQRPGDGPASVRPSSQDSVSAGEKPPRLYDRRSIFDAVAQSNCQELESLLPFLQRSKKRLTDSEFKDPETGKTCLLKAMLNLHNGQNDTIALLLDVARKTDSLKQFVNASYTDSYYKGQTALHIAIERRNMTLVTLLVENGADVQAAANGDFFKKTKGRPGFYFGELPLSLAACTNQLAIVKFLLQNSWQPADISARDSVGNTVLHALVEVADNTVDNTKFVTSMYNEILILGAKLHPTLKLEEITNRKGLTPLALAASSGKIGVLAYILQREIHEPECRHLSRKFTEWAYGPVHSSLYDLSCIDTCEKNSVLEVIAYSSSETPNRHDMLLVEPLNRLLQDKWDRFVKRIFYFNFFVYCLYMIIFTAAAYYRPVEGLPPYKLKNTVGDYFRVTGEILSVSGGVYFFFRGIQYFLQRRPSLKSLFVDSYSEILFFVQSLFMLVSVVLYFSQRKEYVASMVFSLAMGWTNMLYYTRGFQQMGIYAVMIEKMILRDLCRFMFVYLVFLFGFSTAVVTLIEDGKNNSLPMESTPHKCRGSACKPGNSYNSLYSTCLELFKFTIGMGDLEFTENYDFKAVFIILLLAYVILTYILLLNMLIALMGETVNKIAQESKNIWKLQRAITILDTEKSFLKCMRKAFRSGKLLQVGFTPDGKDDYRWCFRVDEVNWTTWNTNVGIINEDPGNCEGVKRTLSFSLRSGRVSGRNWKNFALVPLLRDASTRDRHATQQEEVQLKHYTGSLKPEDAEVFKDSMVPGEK

| SMILES | inhibition at 10 µM (VR1 (human); [2]) [%] | activation at 10 µM (VR1 (human); [3]) [%] | inhibition at 10 µM [1, 2] [%] | activation at 10 µM [1, 3] [%] | VR1 (human) (% inhibition compared to 10 μM CP) (VR1 (human); [2]) [%] | VR1 (human) (% stimulation compared to 10 μM CP) (VR1 (human); [3]) [%] | VR1 (rat) (% inhibition compared to 10 μM CP) [1, 2] [%] | VR1 (rat) (% stimulation compared to 10 μM CP) [1, 3] [%] |
| --- | --- | --- | --- | --- | --- | --- | --- | --- |
| CC(C)c1ccc(NC(=O)N2CCC3(CC2)CC(C(=O)N2CCN(c4ncccc4Cl)CC2)=NO3)cc1 [Example 63, 3-[4-(3-chloropyridin-2-yl)piperazine-1-carbonyl]-1-oxa-2,8-diazaspiro[4.5]dec-2-ene-8-carboxylic acid-(4-isopropylphenyl)amide] | 15.8 | 2.59 | 78.9 | 24.5 | – | – | – | – |
| O=C(Nc1cccc(C(F)(F)F)c1)N1CCC2(CC1)CC(C(=O)N1CCN(c3ncccc3Cl)CC1)=NO2 [Example 68, 3-[4-(3-chloropyridin-2-yl)piperazine-1-carbonyl]-1-oxa-2,8-diazaspiro[4.5]dec-2-ene-8-carboxylic acid-(3-trifluoromethylphenyl)amide] | 24.9 | 16.4 | 58.1 | 6.55 | – | – | – | – |
| CSc1cccc(NC(=O)N2CCC3(CC2)CC(C(=O)N2CCN(c4ncccc4Cl)CC2)=NO3)c1 [Example 56, 3-[4-(3-chloropyridin-2-yl)piperazine-1-carbonyl]-1-oxa-2,8-diazaspiro[4.5]dec-2-ene-8-carboxylic acid-(3-methylsulphanylphenyl)amide] | 41.9 | 5.26 | 63.3 | 30.2 | – | – | – | – |
| COc1cccc(NC(=O)N2CCC3(CC2)CC(C(=O)N2CCN(c4ncccc4Cl)CC2)=NO3)c1 [Example 17, 3-[4-(3-chloropyridin-2-yl)piperazine-1-carbonyl]-1-oxa-2,8-diazaspiro[4.5]dec-2-ene-8-carboxylic acid-(3-methoxyphenyl)amide] | 53.7 | 19.5 | 46.9 | 19.8 | – | – | – | – |
| COc1ccc(NC(=O)N2CCC3(CC2)CC(C(=O)N2CCN(c4ncccc4Cl)CC2)=NO3)cc1 [Example 52, 3-[4-(3-chloropyridin-2-yl)piperazine-1-carbonyl]-1-oxa-2,8-diazaspiro[4.5]dec-2-ene-8-carboxylic acid-(4-methoxyphenyl)amide] | 45.1 | 47.5 | 55.8 | 38.5 | – | – | – | – |
| O=C(Nc1ccc(Cl)cc1)N1CCC2(CC1)CC(C(=O)N1CCN(c3ncccc3Cl)CC1)=NO2 [Example 51, 3-[4-(3-chloropyridin-2-yl)piperazine-1-carbonyl]-1-oxa-2,8-diazaspiro[4.5]dec-2-ene-8-carboxylic acid-(4-chlorophenyl)amide] | 63.4 | 13.2 | 98.8 | 18.6 | – | – | – | – |
| O=C(Nc1cccc(Br)c1)N1CCC2(CC1)CC(C(=O)N1CCN(c3ncccc3Cl)CC1)=NO2 [Example 11, 3-[4-(3-chloropyridin-2-yl)piperazine-1-carbonyl]-1-oxa-2,8-diazaspiro[4.5]dec-2-ene-8-carboxylic acid-(3-bromophenyl)amide] | 37.3 | -0.15 | 41.3 | 11.4 | – | – | – | – |
| COc1cccc(NC(=O)N2CCC3(CC2)CC(C(=O)Nc2ccc(Cl)cn2)=NO3)c1 [Example 18, 1-oxa-2,8-diazaspiro[4.5]dec-2-ene-3,8-dicarboxylic acid-3-[(5-chloropyridin-2-yl)amide]-8-[(3-methoxyphenyl)amide]] | – | – | – | – | 11.17 | 0.67 | 34.24 | 4.68 |
| CSc1ccc(NC(=O)N2CCC3(CC2)CC(C(=O)N2CCN(c4ncccc4Cl)CC2)=NO3)cc1 [Example 58, 3-[4-(3-chloropyridin-2-yl)piperazine-1-carbonyl]-1-oxa-2,8-diazaspiro[4.5]dec-2-ene-8-carboxylic acid-(4-methylsulphanylphenyl)amide] | 84.9 | 72.9 | 72.5 | 19.5 | – | – | – | – |
